These results are taken from PMC7216909 (Chembiochem, 2020).

In the assay the target is T1, FOYE-1 (Ferrovum sp. JA12, UniProt A0A0R0LNE8).
T1 sequence (A0A0R0LNE8 1-354): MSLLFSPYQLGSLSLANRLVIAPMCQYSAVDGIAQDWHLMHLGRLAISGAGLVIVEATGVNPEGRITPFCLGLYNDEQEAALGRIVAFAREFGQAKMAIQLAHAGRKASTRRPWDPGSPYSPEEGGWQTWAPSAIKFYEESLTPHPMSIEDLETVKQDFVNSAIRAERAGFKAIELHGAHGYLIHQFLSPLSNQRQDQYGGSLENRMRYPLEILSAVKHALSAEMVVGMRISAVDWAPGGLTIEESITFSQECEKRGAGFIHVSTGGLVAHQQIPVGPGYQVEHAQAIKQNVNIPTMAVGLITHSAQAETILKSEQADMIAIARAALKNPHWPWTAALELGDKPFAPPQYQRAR
Description: FMN quantification at […] nm in purified protein. The assay is classed as binding. Particulars: co-purified flavin cofactor; partly saturated holoprotein.

As to `Cc1cc2nc3c(=O)[nH]c(=O)nc-3n(C[C@H](O)[C@H](O)[C@H](O)COP(=O)(O)O)c2cc1C` [FMN], the FMN saturation result is reported as “found to be only partially saturated with the flavin mononucleotide (FMN) cofactor”.
